Experimental data from ChEMBL document CHEMBL6153137, “Design, Synthesis, and Biological Evaluation of Novel Orally Available Covalent CDK12/13 Dual Inhibitors for the Treatment of Tumors” (J Med Chem, 2025).
Activity calls are given as the source filed them. The rule behind the calls is not given here.

Key:
[1] = Toxicity against male Sprague-Dawley rat assessed as effect on body weight at 10 to 20 mg/kg, po administered once daily via gavage for 28 days and measured twice a week; type: organism-based; settings: in vivo, 672 h, dose 10-20 mg/kg, time 28 day
[2] = AUC (0 to infinity) in Sprague-Dawley rat at 1 mg/kg, iv by LC-MS/MS analysis; type: ADME, organism-based; settings: in vivo
HEP Sf9 = assay: Inhibition of human recombinant N-terminal GST-tagged CDK6/C-terminal 6X His-tagged Cyclin D3 S259A mutant expressed in HEP Sf9 cells using ATP as substrate at 2 uM measured after 60 mins by ADP-Glo reagent based luminescence analysis
HCT-116 = assay: Antiproliferative activity against PARG KO human HCT-116 cells assessed as reduction in cell viability incubated for 7 days by CellTiter-Glo reagent based luminescence analysis; type: functional; settings: HCT-116, 168 h
[3] = Toxicity against male Sprague-Dawley rat assessed as effect on mean corpuscular hemoglobin at 10 to 40 mg/kg, po administered once daily via gavage for 28 days and measured on day 29; type: organism-based; settings: in vivo, 696 h, dose 10-40 mg/kg, time 29 day
[4] = AUC(0 to t) in female Sprague-Dawley rat at 7.5 mg/kg, po administered once daily via gavage for 28 days; type: ADME, organism-based; settings: in vivo, 672 h, time 28 day
[5] = Cmax in Balb/c mouse xenografted with human SUM149PT cells at 30 mg/kg, po administered once daily via gavage; type: ADME, organism-based; settings: in vivo
Mus musculus = assay: In vivo inhibition of CDK12/13 in Balb/c mouse xenografted with human SUM149PT cells assessed as reduction in FANCI gene expression at 15 to 30 mg/kg, po administered once daily via gavage and measured at 4 hrs post-last drug dosage by qPCR analysis; type: functional, organism-based; settings: dose 15-30 mg/kg
[6] = Toxicity against male Sprague-Dawley rat assessed as effect on phosphorus level in blood at 10 to 40 mg/kg, po administered once daily via gavage for 28 days and measured on day 29; type: organism-based; settings: in vivo, 696 h, dose 10-40 mg/kg, time 29 day
[7] = Toxicity against female Sprague-Dawley rat assessed as increase in neutrophils content at 7.5 to 30 mg/kg, po administered once daily via gavage for 28 days and measured on day 29; type: organism-based; settings: in vivo, 696 h, dose 7.5-30 mg/kg, time 29 day
MV4-11 = assay: Antitumor activity against human MV4-11 cells xenografted in Balb/c nude mouse assessed as inhibition of tumor growth at 15 mg/kg, po administered once daily via gavage and measured on day 21; type: functional; settings: MV4-11, 504 h, time 21 day, read-out: TGI

- AUC(0-inf) [2]: 270 ng·h/mL
- IC50 (HCT-116): 123 nM
- AUCt [4]: 1760 ng·h/mL
- Cmax [5]: 1980 ng/mL
Structure (SMILES): C=CC(=O)N1CCc2c(ncnc2N2CC[C@@H](Nc3ncc(Cl)c(OC)n3)C2)C1
- Activity [1]: Non-toxic
- inhibition (HEP Sf9): 23%
- Activity [3]: Non-toxic
- inhibition (Mus musculus): Active
- Activity [6]: Non-toxic
- Activity [7]: Toxic
- inhibition in vivo at 15 mg/kg (MV4-11): 31%
